Assay results taken from US9107879B1, “Methods of increasing the cytotoxicity of chemotherapeutic agents with multisubstrate inhibitors of histone, protein-lys, polyamine acetylation, and polyamine metabolism” (Vanderbilt University, priority 2010, dated 2015).

Experiments:
[1] = system: histone H3 lysine 9 acetylation in H358 cells; test: Western analysis of histone H3 lysine 9 acetylation/methylation; type: cell-based; settings: for suppression of histone H3K9 acetylation: 50 μM, 12 hours post start of treatment
Description: (A) Structures of 1a, and the acetylated side chain of a lysine residue within the polypeptide chain of a protein targeted by the acetylating enzyme (R1 and R2 are the main chain elements on both sides of the lysyl residue). (B) [^3H]-thymidine incorporation into DNA of H358 cells pulsed for 6 hrs at three different time points after the addition of increasing concentrations of 1a, i.e., at 6-12 hrs (12 hr curve), at 18-24 hours (24 hr curve), or at 42-48 hrs (48 hr curve). Incorporation is represented as a percentage relative to control (untreated) cells. (C) Cell cycle analysis of propidium iodide-stained cells harvested at various times after addition of 50 μM 1a. % of cells in G1, S, and G2 represents the average of two independent profiles. (D) Western analysis of histone H3 lysine 9 acetylation, histone H3 lysine 56 acetylation, histone H3 lysine 9 methylation, and total histone H3, before “c” or at the indicated times after addition of 50 μM 1a. Each lane represents 60 μg cellular protein.
Each lane represents 175 μg cell lysate protein.
One 6 cm culture dish of H358 cells per treatment was used. Cells were treated with 50 μM spm-2, spm-3, or spd-3a for 12 hours. Histones were extracted from cells in 0.2M H2SO4 (as described in Furuta, T., et al (2003) J. Biol. Chem. 278: 20303-20312), followed by SDS-PAGE and Western blotting. Blots were probed with anti-acetyl histone H3-lysine 9 (Upstate Biotechnology, Inc.)
Cells were lysed by adding 1 mL of 0.2 M H2SO4. Histones were recovered as described in reference. SDS-PAGE/Western analysis was carried out as previously described using rabbit monoclonal antibody to total histone H3, rabbit polyclonal anti-trimethyl histone H3 (lysine 9), and anti-acetyl histone H3 (lysine 9). All antibodies were purchased from Upstate Biotechnology Inc. (Lake Placid, N.Y.).
In FIG. 2D, we carried out an immunoblot analysis of total histone H3, histone H3 acetylated on lysine 9 (H3-K9Ac), histone H3 acetylated on lysine 56 (H3-K56Ac) and histone H3 methylated on lysine 9 (H3-MeK9) in H358 cells, before treatment, and after 1, 12, 18, and 24 hours of treatment with 50 μM 1a. […] Acetylation levels are restored by 24 hours.
One 10-cm plate of H358 lung cancer cells (about 2×10^6 cells), grown in DMEM+10% Fetal bovine serum as described in reference, were treated for 24 hours with 50 μM1a inhibitor. Cells lysates were prepared as we have previously described (Lee C, et al., 2005, Cancer Res 65:9834-9842). Treated cells and untreated (control) cells were harvested by lysing in buffer containing 10 mM Hepes pH 7.5, 100 mM NaCl, 300 mM sucrose, 3 mM MgCl2, 1 mM EDTA, 1 mM DTT, 0.5% Triton X-100, 1 mM PMSF, protease inhibitor pellet (Roche) and analyzed on 10% SDS-PAGE gels, followed by Western immunoblot analysis of total histone H3, methylated histone H3 (methylated on lysine 9), and acetylated histone H3 (acetylated on lysine 9). […] Histone H3 methylation was not affected.

[2] = system: H358 lung cancer cells; test: 96-well MTS cell viability assay; type: cell-based
Description: Control cells were left untreated. […] Control cells were left untreated.
Cells were given fresh inhibitor on the first, second, and third days of treatment and viability was measured on the 4th day (i.e. 3 days post start of treatment).
(A) Structure of compound 2a. […] Averages of duplicate samples with standard deviations are shown.
(A) Structure of Spd-3a. (B) Western analysis of histone H3K9-acetylation and total histone H3, measured in control, untreated H358 lung cancer cells “C’ or in H358 cells incubated 12 hours in the presence of 50 μM Spd-2a or Spd-3a. Each lane represents 60 μg cellular protein. (C) [3H]-thymidine incorporation (counts per minute) into DNA of H358 cells during a 6 hour pulse beginning at 42 hours post-start of treatment. Treatments were as follows (bars 1-6 left to right): (1) control: no treatment; (2) CPT alone: 5 nM 18 hours; (3) 3a alone: 50 μM; (4-6) 3a+CPT: CPT (5 nm, 18 hours)+3a at indicated dose. After 18 hours, CPT was removed and medium was replaced with fresh medium containing Spd-3a at the indicated dose. Each bar represents the average of triplicates. (D) 3-day 96-well viability assay of H358 cells grown in the presence of increasing amounts of Spd-2a or Spd-3a, with or without CPT (5 nM 18 hours). […] Each data point represents the average of three wells.
Cells were plated in 96-well plates at 2000 cells per well and treated with the indicated doses of spd-3a. Cell viability was measured by the MTS assay 3 days later.
DLD-1 cells or H358 cells were plated in 96-well plates at 2000 cells per well and treated with the indicated doses of (A) spm-3 or (B) spm-2. (C) Cell viability was measured by the MTS assay 3 days later. Similar experiment using GT41 fibroblasts with spm2 or spm 3. Each assay point represents an average of duplicates.
Control cells received neither 1a nor camptothecin.
After overnight attachment, triplicate wells were treated with increasing concentrations of inhibitor 1a or 1b. Control wells were left untreated. One day later, and again 2 days later, the medium in the wells was removed and replaced with fresh medium containing 1a or 1b.

Compound: CC(C)(COP(=O)(O)OP(=O)(O)OC[C@H]1O[C@@H](n2cnc3c(N)ncnc32)[C@H](O)[C@@H]1OP(=O)(O)O)[C@@H](O)C(=O)NCCC(=O)NCCSCC(=O)NCCCNCCCCN [1a, spermidine[N1]-CoA]
- effect on histone H3 lysine 9 methylation ([1]; 50 μM 1a): no effect
- histone H3 lysine 9 acetyl groups lost ([1]; 50 μM 1a, within 1 hour): over 50%
- histone H3 lysine 9 acetyl groups lost ([1]; 50 μM 1a, within 12 hours): ~98%
- histone H3 K9 acetyl groups lost ([1]; Example 1: 50 μM 1a, 24 hours, cell lysate): over 80%
- 2-day cell viability, % of untreated cell viability ([2]; 5 nM camptothecin + increasing concentrations of 1a): less than 10%

Compound: CC(=O)NCCSCC(=O)NCCCNCCCCN [3a]
- suppression of histone H3K9 acetylation [1]: nearly complete ablation of histone H3K9 acetylation
- suppression of histone H3K9 acetylation ([1]; listed as spd-3a): suppress histone acetylation
- suppression of 3-day cell viability in combination with camptothecin ([2]; 3a + CPT 5 nM 18 hours): effective

Compound: CC[C@@]1(O)C(=O)OCc2c1cc1n(c2=O)Cc2cc3ccccc3nc2-1 [camptothecin]
- 2-day cumulative cell viability relative to untreated, single agent ([2]; 1a increasing concentrations, camptothecin 5 nM 18 hour): no effect

Compound: CC(=O)NCCSCC(=O)NCCCNCCCCNCCCN [spm-3]
- suppression of histone H3K9 acetylation [1]: suppress histone acetylation
- 3-day cell viability, single agent ([2]; single agent): effective as single agents
